Test results as given in patent publication US7442383B2, “Use of xenon for the control of neurological deficits associated with cardiopulmonary bypass” (Protexeon Limited, priority 2002, dated 2008).

How the values were obtained:
rat CPB model [1] = experiment: General behavioural changes after emergence from anesthesia; type: in vivo; settings: MK801 0.15 mg/kg i.v.
Description: (§1) After complete of all surgical procedures as described as above, rats were randomly divided into one of four groups. […] CPB group: rats (n=10) were subjected to 60 min of non-pulsatile CPB with a membrane oxygenator receiving a mixture of 30% O2 and 65% N2. CPB+MK801 group: rats (n=10) received MK801 (0.15 mg/kg, i.v.) 15 min prior to 60 min of CPB with similar concentrations of gases as in group 2. The dose of MK801 was chosen from pilot studies, in which its side effect can be kept at minmal level. CPB+Xenon group: rats (n=10) underwent 60 min of CPB with a membrane oxygenator receiving a mixture of 30% O2 and 60% xenon.
All animals were able to drink and to eat after emergence.

rat CPB model [2] = experiment: Standardized functional neurologic (neuromotor) testing after CPB; type: in vivo; settings: for neurologic outcome, difference among groups: 12th postoperative day
From the text: The methodology of the CPB model used in the current study has been previously reported (Anesthesiology 2001, 95:1485-91). Briefly, anesthesia was induced in male Sprague-Dawley rats (12-14 weeks, 350-380 gm; Harlan, Indianapolis, Ind.) with 5% isoflurane in oxygen-enriched air in a plastic box. Following orotracheal intubation with a 14-gauge cannula, the lungs were mechanically ventilated (40% O2/balance N2) to maintain a PaCO2 of 36-42 mmHg. During surgical preparation, anesthesia was maintained with 2.0-2.5% isoflurane and the rectal and pericranial temperatures were monitored and servo-controlled at 37.5±0.1° C. (YSI 400 series thermistor and 73ATA Indicating controller; YSI, Yellow Springs, Ohio) with a heating blanket and convective forced-air heating system. The superficial caudal epigastric artery, a branch of a femoral artery, was cannulated with PE-10 tubing for monitoring mean arterial pressure (MAP). During cardiopulmonary bypass (CPB) rats were anesthetized with fentanyl (30 μg/kg, i.v.), midazolam (0.4 mg/kg, i.v.) and atracurium (0.5 mg/kg, i.v.) as a bolus of injection and followed by a continuous infusion of the mixture of three with a syringe pump (2.5 μg/kg/min for fentanyl, 0.03 mg/kg/min for midazolam and 0.08 mg/kg/min for atracurium). Pilot studies had been confirmed that with this anesthetic regimen, the animals had enough depth of anesthesia during CPB.
The CPB circuit (FIG. 2) consisted of a venous reservoir, a peristaltic pump and a membrane oxygenator, all of which were connected via 1.6 mm internal diameter silicone tubing (Tygon®; Cole-Parmer Instrument Co., Vernon Hills, Ill.). The CPB circuit was primed with approximately 40 ml of whole blood obtained prior to the start of the experiment from two heparinized (100IU/rat, i.v.) donor rats (275-320 gm) which were exsanguinated under isoflurane anesthesia. The drained blood traversed a warmed venous reservoir (jacketed with circulating water from a heat pump) to a peristaltic pump (Masterflex®; Cole-Parmer Instrument Co., Vernon Hills, Ill.) to a membrane oxygenator (a modified Cobe Micro® neonatal oxygenator with a surface area of 0.33 m^2; Cobe Cardiovascular, Inc., Arvada, Colo.). A closed-circuit gas delivery system fed the appropriate gas into the oxygenator after which blood was inflsed back into the rat. An in-line flow probe (2N806 flow probe and T208 volume flowmeter; Transonics Systems, Inc., Ithaca, N.Y.) was used to continuously measure CPB flow. Arterial line inflow temperature was maintained at 37.5° C. using a circulating water bath system. The venous oxygen saturation from the venous return line was measured continuously using an Oximetrix® Monitor and Opticath® Catheter (Abbot Laboratories, North Chicago, Ill.). Arterial blood gases were performed using a IL 1306 blood gas analyzer (Instrument Laboratories, Inc., Lexington, Mass.) with hemoglobin determined using an OSM3 Hemoximeter® (Radiometer Inc., Copenhagen, Denmark).
as §1, with “xenon. […]” for “xenon.”

rat CPB model [3] = experiment: Morris water maze neurocognitive testing after CPB; type: in vivo; settings: 10 postoperative days; speeds 4.7 to 6.2 inch/sec
From the text: The methodology of the CPB model used in the current study has been previously reported (Anesthesiology 2001, 95:1485-91). Briefly, anesthesia was induced in male Sprague-Dawley rats (12-14 weeks, 350-380 gm; Harlan, Indianapolis, Ind.) with 5% isoflurane in oxygen-enriched air in a plastic box. Following orotracheal intubation with a 14-gauge cannula, the lungs were mechanically ventilated (40% O2/balance N2) to maintain a PaCO2 of 36-42 mmHg. During surgical preparation, anesthesia was maintained with 2.0-2.5% isoflurane and the rectal and pericranial temperatures were monitored and servo-controlled at 37.5±0.1° C. (YSI 400 series thermistor and 73ATA Indicating controller; YSI, Yellow Springs, Ohio) with a heating blanket and convective forced-air heating system. […]
The CPB circuit (FIG. 2) consisted of a venous reservoir, a peristaltic pump and a membrane oxygenator, all of which were connected via 1.6 mm internal diameter silicone tubing (Tygon®; Cole-Parmer Instrument Co., Vernon Hills, Ill.). […] The venous oxygen saturation from the venous return line was measured continuously using an Oximetrix® Monitor and Opticath® Catheter (Abbot Laboratories, North Chicago, Ill.). Arterial blood gases were performed using a IL 1306 blood gas analyzer (Instrument Laboratories, Inc., Lexington, Mass.) with hemoglobin determined using an OSM3 Hemoximeter® (Radiometer Inc., Copenhagen, Denmark). […]

[4] = tested on: mouse neuronal/glial co-culture; experiment: LDH release from neuronal/glial co-culture, temperature variation study; type: cell-based; settings: xenon concentration (% atm)
Description: The effects of xenon as a neuroprotectant were investigated at normal body temperature (37° C.) and at a lower temperature (33° C.), for example, as may pertain during CPB. The study was based on measuring LDH release from a mouse neuronal/glial co-culture in accordance with the method described in WO 01/08692 (in the name of Imperial College of Science, Technology and Medicine).

[5] = 1st postoperative day, CPB group 5.2±1.5, sham 7.6±0.8
[6] = 3rd postoperative day, CPB group 5.8±1.8, sham 8.3±0.7

SMILES: C[C@]12N[C@H](Cc3ccccc31)c1ccccc12 [MK801]
- duration of behavioural disturbances (rat CPB model [1]): 1 to 2 h
- general behavioural changes (rat CPB model [1]): hyperactivity, head weaving and related disturbances of motor coordination
- neurologic outcome (functional neurologic score, zero to nine scale, best score=9) (rat CPB model [2]; [5]): 6.2±1.4
- neurologic outcome (functional neurologic score, zero to nine scale, best score=9) (rat CPB model [2]; [6]): 7.4±1.8
- neurologic outcome, difference among groups (rat CPB model [2]): no difference
- swimming speeds, difference among groups (rat CPB model [3]): no significant differences

SMILES: [Xe] [xenon]
- EC50 for reduction of LDH release ([4]; 33° C.): 11.5+/−2.0%
- EC50 for reduction of LDH release ([4]; 37° C.): 35.9+/−2.2%
- neurologic outcome (functional neurologic score, zero to nine scale, best score=9) (rat CPB model [2]; [5]): 8.3±0.5
- neurologic outcome (functional neurologic score, zero to nine scale, best score=9) (rat CPB model [2]; [6]): 8.9±0.2
- neurologic outcome, difference among groups (rat CPB model [2]): no difference
- swimming speeds, difference among groups (rat CPB model [3]): no significant differences
